Assay results reported in patent US20250032430A1, “USES OF RHODOQUINONE FOR THE TREATMENT OF DISEASE” (Whitehead Institute for Biomedical Research, priority 2021, published 2025).

Key:
143B cells = assay: Polar metabolite profiling (succinate level); format: cell-based, human; settings: 500 nM antimycin 8 hours
Procedure: Isolation of metabolites from adherent cells: To isolate metabolites, media was removed, cells were washed 2 times with ice cold 1×PBS, and wells were covered in LC-MS grade 80:20 Methanol:Water (ThermoFisher). Plates were scraped on dry ice and lysates were collected into eppendorf tubes. Lysates were vortexed for 10 minutes at 4° C. and centrifuged at 16,000×g for 10 minutes at 4° C. Supernatants were immediately dried down in a Refrigerated CentriVap Benchtop Vacuum Concentrator connected to a CentriVap-105 Cold Trap (Labconco). Dried pellets were stored at −80° C. until they were run on LC-MS.
Liquid Chromatography and Mass Spectrometry (polar): A QExactive bench top orbitrap mass spectrometer equipped with an Ion Max source and a HESI II probe coupled to a Dionex UltiMate 3000 HPLC system (Thermo Fisher Scientific) was used to perform all LC-MS experiments. The instrument underwent mass calibration using the standard calibration mixture every 7 days. 2 μL of re-suspended polar metabolite samples were injected onto a SeQuant ZIC-pHILIC 5 μm 150×2.1 mm analytical column equipped with a 2.1×20 mm guard column (MilliporeSigma). The column oven was held at 25° C. and the autosampler tray was held at 4° C. Buffer A was comprised of 20 mM ammonium carbonate, 0.1% ammonium hydroxide. Buffer B was comprised of 100% acetonitrile. […]

SDH complex = assay: Ex vivo net direction of the SDH complex in mouse tissues; settings: ex vivo antimycin treatment of liver, kidney, heart, skeletal muscle
Procedure: (§1) Ex vivo stable isotope tracing on tissues: Tissues were excised from mice and washed in 1×PBS. Tissues were then cut into small pieces and placed in the appropriate stable isotope tracing media. Stable isotope tracing media contained either ^13C5^15N2-glutamine (Sigma) or 13C4-aspartate (Sigma) dissolved in DMEM, 5% FBS, 1% P/S. For ex vivo tracing experiments performed on the brain, the same media was used without FBS. Tissues were incubated for the designated time at 37° C. in a normal or hypoxia tissue culture incubator. Tissues were removed from the media, washed with PBS, and flash frozen in liquid nitrogen. Samples could be stored at −80° C. until metabolites were isolated.
Isolation of metabolites from tissues: Tissues were flash frozen and powderized with a mortar and pestle in a liquid nitrogen bath. Approximately 30 mg of tissue powder was transferred into eppendorf tubes and re-suspended in 800 uL ice-cold LC-MS grade 60:40 Methanol:Water (ThermoFisher). Samples were vortexed for 10 minutes at 4° C. […] The top layer was transferred to a new tube, dried down in a speedvac, and subsequently stored at −80° C. until they were analyzed by LC-MS. […] Protein in each sample was quantified using the Pierce BCA Protein Assay Kit (Life Technologies). […]

DHODH = assay: Ex vivo DHODH activity in mouse tissues (13C4-aspartate into 13C4-orotate); settings: 2 μM antimycin
Procedure: Because net-reversal of the SDH complex supports DHODH activity in cultured cells when O2 reduction is blocked (FIG. 3), mouse tissues were tested. DHODH activity was measured in tissues that are capable (the liver and kidney) or incapable (the heart and gastrocnemius muscle) of net-reversing the SDH complex when O2 reduction is limited. […] Next, DHODH activity was assessed via ^13C4-aspartate incorporation into ^13C4-orotate, because labelling of the ^13C3-UTP pool was undetectable in most tissues.
as §1, with “Tissues were removed from the media, washed with PBS, and flash frozen in liquid nitrogen. Samples could be stored at −80° C. until metabolites were isolated.” left out
Isolation of metabolites from tissues: Tissues were flash frozen and powderized with a mortar and pestle in a liquid nitrogen bath. […] The top layer was transferred to a new tube, dried down in a speedvac, and subsequently stored at −80° C. until they were analyzed by LC-MS. […] Protein in each sample was quantified using the Pierce BCA Protein Assay Kit (Life Technologies). […]

MT-DNA copy number = assay: MT-DNA quantification; format: cell-based, human; settings: SDHA and SDHB knockout cells
Procedure: MT-DNA Quantification: Cells were pelleted, washed 1× in PBS, and then lysed in buffer (25 mM NaOH, 0.2 mM EDTA) for 15 minutes at 95° C. Lysis was neutralized with buffer (40 mM Tris-HCl) and centrifuged at 16,000×g for 10 minutes at 4° C. Supernatant containing MT-DNA was quantified on a CFX96 Real-Time System Thermal Cycler (Bio Rad). Primers amplifying the MT-DNA marker D-Loop (Forward Primer-[…] (SEQ ID NO: 5) Reverse Primer—[…]) (SEQ ID NO: 6) and the nuclear DNA marker B-Globin (Forward Primer-[…] (SEQ ID NO: 7) Reverse Primer—[…]) (SEQ ID NO: 8) were used and the relative MT-DNA to nuclear DNA was quantified in each sample [4].

complex I = assay: NAD+/NADH ratio in cells; format: cell-based, human; settings: SDHB-null cells treated with antimycin versus wild-type cells treated with antimycin
Procedure: Next, fumarate reduction was tested to determine if it sustains complex I activity in cells incapable of using O2 as a terminal electron acceptor. Both the NAD+/NADH ratio, which is an indicator of complex I-mediated NADH reoxidation, and the mitochondrial membrane potential (ΔΨ^Mito) to which complex I contributes via proton pumping. […] Thus, fumarate reduction supports partial complex I activity, specifically NADH reoxidation and ΔΨ^Mito, in cells incapable of reducing O2 in the ETC.

kidney = assay: Kidney tissue cultured ex vivo (quinone levels, fumarate reduction); set-up: species or system mouse; settings: kidney cultured ex vivo for 96 hours, reduced rhodoquinone levels; succinate oxidation not affected
Procedure: as §1
Rhodoquinone-9 is a previously unknown mammalian metabolite. Without wishing to be bound by any particular theory, it is believed that since the level of rhodoquinone-9 decreases overtime when the kidney is cultured ex vivo, that cultured media is missing a component of the rhodoquinone biosynthetic pathway, and that this component may be coming from the gut microbiome.

| Substance | succinate level (143B cells) | net-reversal of the SDH complex (SDH complex) | levels of 13C4-orotate (DHODH activity) (DHODH; ex vivo heart and gastrocnemius muscle) | levels of 13C4-orotate (DHODH activity) (DHODH; ex vivo liver and kidney) | MT-DNA copy number (MT-DNA copy number) | NAD+/NADH ratio (complex I) | fumarate reduction in the kidney (kidney) |
| --- | --- | --- | --- | --- | --- | --- | --- |
| antimycin | increase | only the liver and kidney maintained net-reversal | reduced | remained unchanged | did not alter | lower | – |
| rhodoquinone | – | – | – | – | – | – | required for ubiquitous fumarate reduction |
